Laboratory results from patent US8951993B2, “Phosphorus containing compounds as protein kinase inhibitors” (Jiangsu Hansoh Pharmaceutical Co., Ltd., priority 2011, dated 2015).

Columns and labels:
H2228 = experiment: Cell proliferation assay (MTS / BrdU), H2228; format: cell-based; conditions: Homo sapiens, NCI-H2228; 72 hours, 2% FBS
Method: (§1) Karpas299 and SU-DHL-1 cells were purchased from Deutsche Sammlung von Mikroorganismen and Zellkulturen (Germany). H2228 was purchased from American Type Culture Collection (USA). All cells were cultured in the recommended medium and serum concentration. Cells were maintained at 37° C. in a humidified atmosphere with 5% CO2. For ALK kinase phosphorylation, cells were seeded in 96-well plates overnight in medium supplemented with 10% fetal bovine serum […]. After 24 hours, the medium was removed and cells were cultured in serum-free medium at 37° C. in the presence of various concentrations of the test articles for 1 hour. After incubation with the tested articles, cells were washed once with HBSS supplemented with 1 mM Na3VO4 and protein lysates were generated. Subsequently, phosphorylation of ALK was assessed by a sandwich ELISA method using an immobilized anti-total-ALK antibody and an anti-phospho-ALK antibody (pY1604) as a detection antibody. IC50 value was calculated using median-effect method. (Chou 2006).
(§2) For cell proliferation assay, cells were seeded in 96-well pates at low density at 37° C. in medium supplemented with 10% FBS and after 24 hours were switched to low serum medium (2% FBS). Cells were further incubated in the presence of the test articles at various concentrations at 37° C. for 72 hours. Two assays were employed to determine the relative cell numbers. One is a 3-(4,5-dimethylthiazol-2-yl)-5-(3-carboxymethoxyphenyl)-2-(4-sulfophenyl)-2H-tetrazolium (MTS) assay using a CellTiter 96® Aqueous Non-Radioactive Cell Proliferation kit (Promega), and the other is a BrdU incorporation assay using a DELFIA® Cell Proliferation Kit (Perkin Elmer). IC50 value was calculated using median-effect method (Chou 2006).

ALK [1] = target: T1, ALK (Homo sapiens, UniProt Q9UM73); experiment: Inhibition of ALK phosphorylation (sandwich ELISA, pY1604), cell line not given; format: cell-based; design: fused on or other part: Q9HC35 (Echinoderm microtubule-associated protein-like 4); conditions: 1 hour, serum-free
Method: as §1
Target sequence in this assay (Q9UM73 1058-1620 limits assumed): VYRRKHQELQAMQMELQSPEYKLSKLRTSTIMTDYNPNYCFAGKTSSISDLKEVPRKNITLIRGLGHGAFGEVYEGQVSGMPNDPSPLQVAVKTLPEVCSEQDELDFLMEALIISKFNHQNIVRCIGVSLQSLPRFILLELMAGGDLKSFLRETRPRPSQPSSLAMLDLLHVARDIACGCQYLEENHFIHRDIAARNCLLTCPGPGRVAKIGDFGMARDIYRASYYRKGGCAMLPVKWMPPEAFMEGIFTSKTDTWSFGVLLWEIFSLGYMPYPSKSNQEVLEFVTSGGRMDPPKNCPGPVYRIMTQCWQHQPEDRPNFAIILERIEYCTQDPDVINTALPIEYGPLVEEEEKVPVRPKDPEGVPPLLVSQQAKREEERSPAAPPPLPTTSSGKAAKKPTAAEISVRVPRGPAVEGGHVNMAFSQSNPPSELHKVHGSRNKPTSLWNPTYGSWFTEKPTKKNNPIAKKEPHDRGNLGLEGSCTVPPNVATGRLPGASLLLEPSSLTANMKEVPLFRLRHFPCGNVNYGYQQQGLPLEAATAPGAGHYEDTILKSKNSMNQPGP

ALK [2] = target: T1, ALK; experiment: ALK enzyme activity assay (HTRF KinEASE); format: biochemical; design: purchased Millipore Company (Billerica, Mass., USA); conditions: ATP 25 μM, 30° C. 30 minutes
Method: ALK Enzyme Activity Assay:
ALK kinase was purchased from Millipore Company (Billerica, Mass., USA). HTRF®KinEASET™ was purchased from Cisbio Company (Bedford, Mass., USA). The assay was conducted according to the procedure provided in the assay kit. In brief, incubation was carried out in the kinase buffer containing ALK (0.3 ng/μL), ATP (25 μM), TK substrate-biotin (10 μM), DTT (1 mM), MgCl2 (5 mM), MnCl2 (5 mM) in the presence of the tested articles at various concentrations in 384-well plate at 30° C. for 30 minutes. The reaction was stopped by addition of Sa-XL665 in EDTA solution, and the phosphorylated substrate was detected with a proprietary phospho-specific monoclonal antibody labeled with Eu^3+-Cryptate and a proprietary biotinylated kinase substrate detected using XL665 labeled streptavidin. IC50 value was calculated using median-effect method (Chou 2006).
Target sequence in this assay (Q9UM73 19-1620): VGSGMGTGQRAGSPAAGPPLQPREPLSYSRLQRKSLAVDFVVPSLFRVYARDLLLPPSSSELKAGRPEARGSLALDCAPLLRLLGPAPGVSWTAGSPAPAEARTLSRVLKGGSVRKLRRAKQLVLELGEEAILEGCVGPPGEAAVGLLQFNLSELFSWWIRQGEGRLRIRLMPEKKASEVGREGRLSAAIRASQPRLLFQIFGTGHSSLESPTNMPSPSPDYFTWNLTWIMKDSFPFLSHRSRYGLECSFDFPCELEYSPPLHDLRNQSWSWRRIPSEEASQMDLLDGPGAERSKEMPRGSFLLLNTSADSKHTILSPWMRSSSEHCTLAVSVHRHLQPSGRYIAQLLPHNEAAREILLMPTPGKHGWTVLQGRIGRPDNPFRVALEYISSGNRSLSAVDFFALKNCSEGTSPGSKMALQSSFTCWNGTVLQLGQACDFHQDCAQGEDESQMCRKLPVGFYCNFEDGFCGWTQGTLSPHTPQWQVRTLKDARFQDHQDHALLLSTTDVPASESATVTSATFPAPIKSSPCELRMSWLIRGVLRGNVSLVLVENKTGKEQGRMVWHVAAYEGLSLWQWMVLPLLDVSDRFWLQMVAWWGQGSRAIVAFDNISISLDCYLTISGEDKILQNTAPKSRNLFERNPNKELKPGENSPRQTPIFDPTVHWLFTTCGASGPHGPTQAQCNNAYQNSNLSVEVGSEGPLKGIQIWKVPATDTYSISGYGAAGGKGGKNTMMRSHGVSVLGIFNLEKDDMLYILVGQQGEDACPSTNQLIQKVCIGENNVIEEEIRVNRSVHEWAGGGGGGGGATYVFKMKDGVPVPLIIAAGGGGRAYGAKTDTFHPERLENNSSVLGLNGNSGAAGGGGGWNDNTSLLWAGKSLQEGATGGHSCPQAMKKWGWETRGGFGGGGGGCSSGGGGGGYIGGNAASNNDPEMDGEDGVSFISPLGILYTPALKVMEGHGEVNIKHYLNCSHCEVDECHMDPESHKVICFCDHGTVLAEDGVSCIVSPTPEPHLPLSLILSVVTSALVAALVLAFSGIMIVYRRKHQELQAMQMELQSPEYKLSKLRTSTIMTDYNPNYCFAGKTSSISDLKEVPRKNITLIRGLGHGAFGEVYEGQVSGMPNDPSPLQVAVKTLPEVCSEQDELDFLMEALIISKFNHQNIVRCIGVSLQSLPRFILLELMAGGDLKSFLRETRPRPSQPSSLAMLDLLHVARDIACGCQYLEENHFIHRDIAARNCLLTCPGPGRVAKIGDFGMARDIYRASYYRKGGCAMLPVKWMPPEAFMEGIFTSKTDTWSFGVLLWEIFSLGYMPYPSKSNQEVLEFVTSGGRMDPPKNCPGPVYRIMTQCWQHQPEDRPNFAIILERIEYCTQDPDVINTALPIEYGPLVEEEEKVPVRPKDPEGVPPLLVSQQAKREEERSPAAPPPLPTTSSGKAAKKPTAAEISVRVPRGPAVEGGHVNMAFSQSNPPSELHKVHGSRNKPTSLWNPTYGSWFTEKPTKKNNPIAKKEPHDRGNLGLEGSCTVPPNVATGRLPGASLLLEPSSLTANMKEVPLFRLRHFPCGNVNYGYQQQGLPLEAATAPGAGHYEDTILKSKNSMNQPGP

SU-DHL-1 = experiment: Cell proliferation assay (MTS / BrdU), SU-DHL-1; format: cell-based; conditions: Homo sapiens, 72 hours, 2% FBS
Method: as §1, §2

Karpas299 = experiment: Cell proliferation assay (MTS / BrdU), Karpas299; format: cell-based; conditions: Homo sapiens, KARPAS-299; 72 hours, 2% FBS
Method: as §1, §2

[3] = Pharmacokinetic assay, intravenous and oral administration; format: in vivo, Sprague-Dawley rats or beagle dogs; conditions: plasma
Method: The tested articles were given to Sprague-Dawley rats or beagle dogs by intravenous and oral administration. Plasma samples were prepared from blood samples which were collected at various time points. The plasma concentrations of the tested articles were determined by specific LC-MS/MS analytical methods. Pharmacokinetic parameters were calculated with WinNonlin®.

Compound | IC50 (ALK [2]) | IC50 (SU-DHL-1) | further results
CC(Oc1cc(-c2ccc(P(C)(C)=O)c3ccccc23)cnc1N)c1c(Cl)ccc(F)c1Cl (stereo not drawn) [Example 9, 3-[1-(2,6-dichloro-3-fluoro-phenyl)ethoxy]-5-(4-dimethylphosphoryl-1-naphthyl)pyridin-2-amine] | 1000 to 5000 nM |  | 
COc1cc(-c2cnc(N)c(OC(C)c3c(Cl)ccc(F)c3Cl)c2)c(F)cc1P(C)(C)=O (stereo not drawn) [Example 10, 3-[1-(2,6-dichloro-3-fluoro-phenyl)ethoxy]-5-(4-dimethylphosphoryl-2-fluoro-5-methoxy-phenyl)pyridin-2-amine] | 1000 to 5000 nM |  | 
CC(Oc1cc(-c2ccc(P(C)(C)=O)c(F)c2)cnc1N)c1c(Cl)ccc(F)c1Cl (stereo not drawn) [Example 14, 3-[1-(2,6-dichloro-3-fluoro-phenyl)ethoxy]-5-(4-dimethylphosphoryl-3-fluoro-phenyl)pyridin-2-amine] | 1000 to 5000 nM | 1000 to 5000 nM | 
CC(Oc1cc(-c2ccc(P(C)(C)=O)cc2C(F)(F)F)cnc1N)c1c(Cl)ccc(F)c1Cl (stereo not drawn) [Example 15, 3-[1-(2,6-dichloro-3-fluoro-phenyl)ethoxy]-5-[4-dimethylphosphoryl-2-(trifluoromethyl)phenyl]pyridin-2-amine] | 500 to 1000 nM |  | 
CC(Oc1cc(-c2ccc(P(C)(C)=O)nc2)cnc1N)c1c(Cl)ccc(F)c1Cl (stereo not drawn) [Example 16, 3-[1-(2,6-dichloro-3-fluoro-phenyl)ethoxy]-5-(6-dimethylphosphoryl-3-pyridyl)pyridin-2-amine] | 500 to 1000 nM | 1000 to 5000 nM | 
CC(Oc1cc(-c2ccc(P(C)(C)=O)cn2)cnc1N)c1c(Cl)ccc(F)c1Cl (stereo not drawn) [Example 18, 3-[1-(2,6-dichloro-3-fluoro-phenyl)ethoxy]-5-(5-dimethylphosphoryl-2-pyridyl)pyridin-2-amine] | 100 to 500 nM | 100 to 500 nM | IC50 (Karpas299): 100 to 500 nM
CC(Oc1cc(-c2ccc(P(C)(C)=O)cc2Cl)cnc1N)c1c(Cl)ccc(F)c1Cl (stereo not drawn) [Example 19, 5-(2-chloro-4-dimethylphosphoryl-phenyl)-3-[1-(2,6-dichloro-3-fluoro-phenyl)ethoxy]pyridin-2-amine] | 100 to 500 nM | 100 to 500 nM | 
CC(Oc1cc(-c2ccc(P(C)(C)=O)cc2OC(F)(F)F)cnc1N)c1c(Cl)ccc(F)c1Cl (stereo not drawn) [Example 20, 3-[1-(2,6-dichloro-3-fluoro-phenyl)ethoxy]-5-[4-dimethylphosphoryl-2-(trifluoromethoxy)phenyl]pyridin-2-amine] | 500 to 1000 nM | 100 to 500 nM | 
CC(Oc1cc(-c2ccc(P(C)(C)=O)cc2)cnc1N)c1cc(Cl)ccc1Cl (stereo not drawn) [Example 21, 3-[1-(2,5-dichlorophenyl)ethoxy]-5-(4-dimethylphosphorylphenyl)pyridin-2-amine] | 100 to 500 nM | < 100 nM | 
CC(Oc1cc(-c2ccc(P(C)(C)=O)cc2)cnc1N)c1cc(F)ccc1Cl (stereo not drawn) [Example 22, 3-[1-(2-chloro-5-fluoro-phenyl)ethoxy]-5-(4-dimethylphosphorylphenyl)pyridin-2-amine] | 100 to 500 nM | < 100 nM | 
CCOP(=O)(OCC)c1ccc(-c2cnc(N)c(OC(C)c3cc(F)ccc3Cl)c2)cc1 (stereo not drawn) [Example 26, 3-[1-2-(2-chloro-5-fluoro-phenyl)ethoxy]-5-(4-diethoxyphosphorylphenyl)pyridine-2-amine] | 500 to 1000 nM |  | 
CCOP(=O)(OCC)c1ccc(-c2cnc(N)c(O[C@H](C)c3c(Cl)ccc(F)c3Cl)c2)cc1 [Example 28, 3-[(1R)-1-2-(2,6-dichloro-3-fluoro-phenyl)ethoxy]-5-(4-diethoxyphosphorylphenyl)pyridine-2-amine] | 100 to 500 nM | 1000 to 5000 nM | 

Now from value to compound, other results behind:

IC50 (ALK [2]) | IC50 (SU-DHL-1) | Compound | further results
< 100 nM |  | CC(Oc1cc(-c2cnn(C3CCN(CP(C)(C)=O)CC3)c2)cnc1N)c1c(Cl)ccc(F)c1Cl (stereo not drawn) [Example 2, 3-[1-(2,6-dichloro-3-fluoro-phenyl)ethoxy]-5-[1-[1-(dimethylphosphorylmethyl)-4-piperidyl]pyrazol-4-yl]pyridin-2-amine] | IC50 (H2228): 1000 to 5000 nM; IC50 (ALK [1]): < 500 nM
100 to 500 nM |  | CC(Oc1cc(-c2cnn(CP(C)(C)=O)c2)cnc1N)c1c(Cl)ccc(F)c1Cl (stereo not drawn) [Example 3, 3-[1-(2,6-dichloro-3-fluoro-phenyl)ethoxy]-5-[1-(dimethylphosphorylmethyl)pyrazol-4-yl]pyridin-2-amine] | 
100 to 500 nM |  | CC(Oc1cc(-c2ccc(CN(CP(C)(C)=O)CP(C)(C)=O)cc2)cnc1N)c1c(Cl)ccc(F)c1Cl (stereo not drawn) [Example 4, 5-[4-[(bis(dimethylphosphorylmethyl)amino)methyl]phenyl]-3-[1-(2,6-dichloro-3-fluoro-phenyl)ethoxy]pyridin-2-amine] | IC50 (H2228): 1000 to 5000 nM
100 to 500 nM | 1000 to 5000 nM | CC(Oc1cc(-c2ccc(CNCP(C)(C)=O)cc2)cnc1N)c1c(Cl)ccc(F)c1Cl (stereo not drawn) [Example 5, 3-[1-(2,6-dichloro-3-fluoro-phenyl)ethoxy]-5-[4-[(dimethylphosphorylmethylamino)methyl]phenyl]pyridin-2-amine] | IC50 (H2228): 100 to 500 nM
100 to 500 nM | 1000 to 5000 nM | CC(Oc1cc(-c2cncc(P(C)(C)=O)c2)cnc1N)c1c(Cl)ccc(F)c1Cl (stereo not drawn) [Example 6, 3-[1-(2,6-dichloro-3-fluoro-phenyl)ethoxy]-5-(5-dimethylphosphoryl-3-pyridyl)pyridin-2-amine] | IC50 (H2228): 100 to 500 nM
100 to 500 nM |  | CC(Oc1cc(-c2ccc(COP(C)(C)=O)cc2)cnc1N)c1c(Cl)ccc(F)c1Cl (stereo not drawn) [Example 7, 3-[1-(2,6-dichloro-3-fluoro-phenyl)ethoxy]-5-[4-(dimethylphosphoryloxymethyl)phenyl]pyridin-2-amine] | 
100 to 500 nM | 100 to 500 nM | CC(Oc1nc(-c2ccc(P(C)(C)=O)cc2)cnc1N)c1c(Cl)ccc(F)c1Cl (stereo not drawn) [Example 11, 3-[1-(2,6-dichloro-3-fluoro-phenyl)ethoxy]-5-(4-dimethylphosphorylphenyl)pyrazin-2-amine] | 
< 100 nM |  | COc1cc(-c2cnc(N)c(OC(C)c3c(Cl)ccc(F)c3Cl)c2)ccc1P(C)(C)=O (stereo not drawn) [Example 12, 3-[1-(2,6-dichloro-3-fluoro-phenyl)ethoxy]-5-(4-dimethylphosphoryl-3-methoxy-phenyl)pyridin-2-amine] | 
< 100 nM | 100 to 500 nM | CC(Oc1cc(-c2ccc(P(C)(C)=O)cc2F)cnc1N)c1c(Cl)ccc(F)c1Cl (stereo not drawn) [Example 13, 3-[1-(2,6-dichloro-3-fluoro-phenyl)ethoxy]-5-(4-dimethylphosphoryl-2-fluoro-phenyl)pyridin-2-amine] | IC50 (Karpas299): < 100 nM; half-life ([3]; after oral administration in rats or dogs): > 3 h; bioavailability ([3]; oral administration in rats or dogs, read-out: oral bioavailabilty): > 20%
100 to 500 nM | < 100 nM | CC(Oc1cc(-c2ccc(P(C)(C)=O)cc2O)cnc1N)c1c(Cl)ccc(F)c1Cl (stereo not drawn) [Example 17, 2-[6-amino-5-[1-(2,6-dichloro-3-fluoro-phenyl)ethoxy]-3-pyridyl]-5-dimethylphosphoryl-phenol] | 
< 100 nM | 1000 to 5000 nM | CC(Oc1cc(-c2ccc(P(=O)(O)O)cc2)cnc1N)c1cc(F)ccc1Cl (stereo not drawn) [Example 27, [4-(6-amino-5-[1-(2-chloro-5-fluoro-phenyl)ethoxyl]-3-pyridyl]phenyl]phosphonic acid] | 
< 100 nM | 1000 to 5000 nM | C[C@@H](Oc1cc(-c2ccc(P(=O)(O)O)cc2)cnc1N)c1c(Cl)ccc(F)c1Cl [Example 29, [4-(6-amino-5-[(1R)-1-(2,6-dichloro-3-fluoro-phenyl)ethoxyl]-3-pyridyl]phenyl]phosphonic acid] | 
